According to patent US11027027B2, “Pyridazinoindole compounds and methods for PET imaging” (Vanderbilt University, priority 2015, dated 2021):
Like-named read-outs stand apart in the source and are kept apart here.

Assays:
TSPO [1] = target: T1, TSPO (Rattus norvegicus, UniProt P16257); assay: Binding affinity to TSPO of fluorescent probes
Excerpt: Binding affinity to TSPO of fluorescent probes 23-29.

TSPO [2] = target: T1, TSPO; assay: TSPO radiometric binding assay, kidney lysate, displacement of [3H]PK11195
Procedure: (§1) Affinities are expressed as Ki±S.E.M. (pM) in Table 1. All experiments were performed in triplicate.
(§2) Male Wistar rats were sacrificed and the heart and kidney collected and dissected. The tissues were homogenized in 20 volumes of ice-cold PBS buffer (pH 7.4) with a Brinkmann microhomogenizer (Kinematica AG, Luzern, SW). The homogenate was collected at a protein concentration of 5.0 mg/mL and stored at −80° C. C6 cells were collected and washed with PBS buffer three times, and then frozen and thawed three times in lysis buffer (5.0 mM HEPES, 0.21 M D-mannitol, 0.07 M sucrose, 2.0 mM benzamidine, 2.0 mM toluenesulfonyl fluoride, 4.0 mM MgCl2, pH 7.4) to produce C6 cell lysate (0.5 mg/mL). […] The reaction was terminated by rapid filtration through a Brandel harvester (Gaithersburg, Md., USA) and collection onto a filter presoaked with 0.3% polyethyleneimine. Filters were then punched out into scintillation vials and bound radioactivity measured on a Beckman LS 6000 Scintillation Counter (Brea, Calif., USA). […] All experiments were performed in triplicate.

TSPO [3] = target: T1, TSPO; assay: TSPO radiometric binding assay, heart lysate, displacement of [3H]PK11195
Procedure: as §1, §2

TSPO [4] = target: T1, TSPO; assay: TSPO radiometric binding assay, C6 glioma cell lysate, displacement of [3H]PK11195; parameters: frozen and thawed three times in lysis buffer; endogenous in cells; host or cells: C6 rat glioma cells
Procedure: as §1, §2

[5] = target: central benzodiazepine receptor (CBR); details: value used to calculate Ki; read-out: Kd for flunitrazepam; cited from earlier work
PBR = PBR (Homo sapiens, UniProt P30536); details: cited from earlier work
Sequence of PBR (P30536 whole entry, species assumed): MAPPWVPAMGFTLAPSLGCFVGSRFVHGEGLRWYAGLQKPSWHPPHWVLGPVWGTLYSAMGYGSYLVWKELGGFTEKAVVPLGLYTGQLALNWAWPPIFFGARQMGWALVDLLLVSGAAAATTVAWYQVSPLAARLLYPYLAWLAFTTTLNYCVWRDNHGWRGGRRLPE

TSPO [6] = target: T1, TSPO; parameters: frozen and thawed three times in lysis buffer; endogenous in cells; host or cells: C6 rat glioma cells; details: cited from earlier work
TSPO [7] = target: T1, TSPO; assay: In vivo PET displacement study with non-radioactive 14 in C6-bearing rats; parameters: frozen and thawed three times in lysis buffer; endogenous in cells; host or cells: C6 rat glioma cells
Procedure: Specific Binding of [^18F]-14 in Rats. To evaluate the in vivo TSPO specificity of [^18F]-14, the present inventors performed displacement studies in C6-bearing rats using the non-radioactive analog (14). As shown in the TAC in FIG. 1H, during the dynamic PET study, a bolus (IV) infusion of nonradioactive 14 (10 mg/kg) was administered approximately 30 minutes after injection of [^18F]-14. […] During tumor displacement, the present inventors observed a minor influx of tracer into normal brain (green). The displaced [^18F]-14 then rapidly cleared the normal brain and entered the plasma, subsequently elevating plasma (red) radioactivity.
PET/CT was performed within 24 hours of MRI in rats with confirmed tumors. Tumor-bearing rats were administered [^18F]-14 via jugular catheter while in a microPET Focus 220 scanner (Siemens, Munich, Del.). Data were collected in list-mode format for 90 minutes, followed by a CT scan (microCAT II; Siemens) for attenuation correction.
The dynamic PET acquisition was divided into twelve 10-s frames for the first two minutes, three 60-second frames for the following three minutes, and seventeen 300-second frames for the duration of the scan. The raw data within each frame were then binned into three-dimensional sinograms, with a span of three and ring difference of 47. […]

C6 glioma = assay: Dynamic microPET imaging of tracer uptake in C6 glioma-bearing rats; assay type: in vivo, rat
Procedure: (§3) Uptake Characteristics of [^18F]-14 in C6 Glioma. The in vivo performance of [^18F]-14 was evaluated in glioma-bearing (C6), male Wistar rats using microPET imaging, with a typical study shown in FIG. 1. MRI (T2-weighted) was used to localize tumors and for registration of anatomical features with PET (FIG. 1A).^11,12,18 Dynamic PET imaging with [^18F]-14 illustrated that the majority of tracer accumulation in the brain was localized to the tumor, with modest accumulation that exceeded plasma in contralateral, non-tumor brain (FIGS. 1B & 1C). The tumor-selective characteristics of [^18F]-14 afforded excellent imaging contrast between tumor and contralateral tissue. FIG. 1G illustrates time—activity curves (TACs) typical of representative studies for tumor (blue), normal brain (green), and plasma (red) over a 90-min dynamic acquisition.
All studies involving animals were conducted in compliance with federal and institutional guidelines. Two weeks before imaging, healthy male Wistar rats were stereotactically inculcated in the right hemisphere with 1.0×10^5 C6 glioma cells (American Type Tissue Collection). Prior to imaging, all rats were affixed with venous and arterial catheters.
PET/CT was performed within 24 hours of MRI in rats with confirmed tumors. Tumor-bearing rats were administered [^18F]-14 via jugular catheter while in a microPET Focus 220 scanner (Siemens, Munich, Del.). […]

[8] = Radio-TLC radiometabolite analysis of plasma; assay type: in vivo, rat; details: plasma samples, n=2, preliminary
Procedure: as §3
Arterial blood (500 μL) was collected at 2, 12, 30, and 60 minutes following injection of 1.5 mCi of [^18F]-14. After centrifugation, the plasma was extracted with acetonitrile/water (50 μL, 7/1, v/v). The mixture was then centrifuged and the supernatant used for TLC analysis in 10% dichloromethane in methanol. Radiochromatographic data were recorded and collected using a radioisotope detector (Bioscan, Washington, D.C., USA).

[9] = target: central benzodiazepine receptor (CBR); assay: CBR binding assay, displacement of [3H]flunitrazepam in rat brain (cerebral cortex) lysate; details: rat brain lysate / cerebral cortex membranes; selectivity for TSPO over CBR; read-out: Ki versus [3H]flunitrazepam
Procedure: as §1
The homogenate was collected at a protein concentration of 5.0 mg/mL and stored at −80° C. […] All experiments were performed in triplicate.

[10] = Ki ± S.E.M. versus [3H]PK11195, rat heart lysate, triplicate
[11] = Ki ± S.E.M. versus [3H]PK11195, C6 lysate, high-affinity value where binding is mixed, triplicate, read-out: C6 Glioma Ki
[12] = versus [3H]PK11195, C6 lysate, low-affinity component, read-out: C6 Glioma Ki, low-affinity binding (mixed affinity binding)

## CCc1cc(CC)n2nc(-c3ccc(OCCCCCCCCNC(=S)Nc4ccc5c(c4)C(=O)OC54c5ccc(O)cc5Oc5cc(O)ccc54)cc3)c(CC(=O)N(CC)CC)c2n1 [Compound 29]
TSPO [1]
  Ki: 0.31 ± 0.02 nM

## CN(C)C(=O)Cc1nn(-c2ccccn2)c(=O)c2c1c1ccc(Cl)cc1n2C [Compound 13, 2-(7-Chloro-5-methyl-4-oxo-3-(pyridin-2-yl)-4,5-dihydro-3H-pyridazino[4,5-b]indol-1-yl)-N,N-dimethylacetamide]
TSPO [2]; Ki ± S.E.M. versus [3H]PK11195, rat kidney lysate, high-affinity value where binding is mixed, triplicate
  Kidney Ki: did not appreciably bind TSPO
TSPO [2]; read-out: Kidney Ki
  Ki: 6.8 nM
TSPO [3]
  Ki: 4.94 nM
TSPO [3]; [10]
  Heart Ki: did not appreciably bind TSPO
TSPO [4]; Ki ± S.E.M. versus [3H]PK11195, C6 lysate, high-affinity value where binding is mixed, triplicate
  C6 Glioma Ki: did not appreciably bind TSPO
TSPO [4]; [11]
  Ki: 2.41 nM

## CCc1cc(CC)n2nc(-c3ccc(OCCCCCCCNC(=S)Nc4ccc5c(c4)C(=O)OC54c5ccc(O)cc5Oc5cc(O)ccc54)cc3)c(CC(=O)N(CC)CC)c2n1 [Compound 28]
TSPO [1]
  Ki: 16.3 ± 5.01 nM

## CN1C(=O)CN=C(c2ccccc2F)c2cc([N+](=O)[O-])ccc21 [flunitrazepam]
[5]
  Kd: 1.1 nM

## CCc1cc(CC)n2nc(-c3ccc(OCCCCCNC(=S)Nc4ccc5c(c4)C(=O)OC54c5ccc(O)cc5Oc5cc(O)ccc54)cc3)c(CC(=O)N(CC)CC)c2n1 [Compound 26]
TSPO [1]
  Ki: 185 ± 15.4 nM

## CN(C)C(=O)Cc1nn(-c2cccc(Cl)n2)c(=O)c2c1c1ccc(Cl)cc1n2C [Compound 15, 2-(7-Chloro-3-(6-chloropyridin-2-yl)-5-methyl-4-oxo-4,5-dihydro-3H-pyridazino[4,5-b]indol-1-yl)-N,N-dimethylacetamide]
TSPO [4]; [11]
  Ki: 0.00234 ± 0.0004 nM

## CN(C)C(=O)Cc1nn(-c2cccc(Br)n2)c(=O)c2c1c1ccc(Cl)cc1n2C [Compound 16, 2-(7-Chloro-3-(6-bromopyridin-2-yl)-5-methyl-4-oxo-4,5-dihydro-3H-pyridazino[4,5-b]indol-1-yl)-N,N-dimethylacetamide]
TSPO [4]; [11]
  Ki: 0.00148 ± 0.0002 nM

## CN(C)C(=O)Cc1nn(-c2ccccc2F)c(=O)c2c1c1ccc(Cl)cc1n2C [Compound 9, 2-(7-Chloro-3-(2-fluorophenyl)-5-methyl-4-oxo-4,5-dihydro-3H-pyridazino[4,5-b]indol-1-yl)-N,N-dimethylacetamide]
TSPO [2]; read-out: Kidney Ki
  Ki: 0.00118 ± 4e-05 nM

## COc1ccc(OC)c(CN(C(C)=O)c2cc(F)ccc2Oc2ccccc2)c1 [DAA1106]
PBR
  binding affinity for PBR: fentomolar

## COc1ccc(OC)c(CN(C(=O)CF)c2ccccc2Oc2ccccc2)c1 [Compound 1, reference compound]
TSPO [6]; read-out: Ki for TSPO in C6 glioma (reported), literature values
  Ki: 6.17 nM

## CN(C)C(=O)Cc1nn(-c2cccc([N+](=O)[O-])c2)c(=O)c2c1c1ccc(Cl)cc1n2C [Compound 11, 2-(7-Chloro-5-methyl-3-(3-nitrophenyl)-4-oxo-4,5-dihydro-3H-pyridazino[4,5-b]indol-1-yl)-N,N-dimethylacetamide]
TSPO [3]
  Ki: 0.00118 ± 9e-05 nM

## CN(C)C(=O)Cc1nn(-c2cccc([18F])n2)c(=O)c2c1c1ccc(Cl)cc1n2C [[^18F]-14, 7-chloro-N,N,5-trimethyl-4-oxo-3(6-[^18F]fluoropyridin-2-yl)-3,5-dihydro-4H-pyridazino[4,5-b]indole-1-acetamide]
TSPO [7]; bolus IV nonradioactive 14 (10 mg/kg) about 30 min after tracer
  tumor binding after injection of 14, % of the peak tumor uptake: approximately 40%
TSPO [7]; non-radioactive 14 given halfway through the PET scan
  displaceability by non-radioactive 14: fully displaceable
C6 glioma; preclinical model of glioma (C6), PET
  tracer accumulation in normal brain and tumor: modest accumulation in normal brain, yet robust accumulation in tumor tissue
C6 glioma; time-activity curve, 90-min dynamic acquisition
  plasma clearance of tracer: quickly cleared the plasma
[8]
  % parent at 60 min: > 90%

## CCc1cc(CC)n2nc(-c3ccc(OCCCNC(=S)Nc4ccc5c(c4)C(=O)OC54c5ccc(O)cc5Oc5cc(O)ccc54)cc3)c(CC(=O)N(CC)CC)c2n1 [Compound 24]
TSPO [1]
  Ki: 111 ± 25.6 nM

## CCc1cc(CC)n2nc(-c3ccc(OCCNC(=S)Nc4ccc5c(c4)C(=O)OC54c5ccc(O)cc5Oc5cc(O)ccc54)cc3)c(CC(=O)N(CC)CC)c2n1 [Compound 23]
TSPO [1]
  Ki: 13.8 ± 4.99 nM

## CCc1cc(CC)n2nc(-c3ccc(OCC[18F])cc3)c(CC(=O)N(CC)CC)c2n1 [[^18F]-2b, 2-(5,7-diethyl-2-(4-(2-[^18F]fluoroethoxy)phenyl)pyrazolo[1,5-a]pyrimidin-3-yl)-N,N-diethylacetamide]
TSPO [6]; TSPO
  enhancement in affinity compared to [18F]-2a: 36 fold

## CN(C)C(=O)Cc1nn(-c2cccc(F)n2)c(=O)c2c1c1ccc(Cl)cc1n2C [Compound 14, 2-(7-Chloro-3-(6-fluoropyridin-2-yl)-5-methyl-4-oxo-4,5-dihydro-3H-pyridazino[4,5-b]indol-1-yl)-N,N-dimethylacetamide]
[9]
  Ki: > 10000 nM
TSPO [2]; Ki ± S.E.M. versus [3H]PK11195, rat kidney lysate, high-affinity value where binding is mixed, triplicate, read-out: Kidney Ki
  Ki: 0.00221 ± 0.0004 nM
TSPO [3]; [10]
  Ki: 0.00321 ± 0.0004 nM
TSPO [4]; [11]
  Ki: 0.00119 nM
TSPO [4]; TSPO, in our lab
  increase in potency over 2b: 1000 fold
TSPO [4]; [12]
  Ki: 1.77 nM

## CCc1cc(CC)n2nc(-c3ccc(OCCCCCCNC(=S)Nc4ccc5c(c4)C(=O)OC54c5ccc(O)cc5Oc5cc(O)ccc54)cc3)c(CC(=O)N(CC)CC)c2n1 [Compound 27]
TSPO [1]
  Ki: 11.7 ± 4.86 nM

## CN(C)C(=O)Cc1nn(-c2ccc(F)cc2)c(=O)c2c1c1ccc(Cl)cc1n2C [Compound 12, 2-(7-Chloro-3-(4-fluorophenyl)-5-methyl-4-oxo-4,5-dihydro-3H-pyridazino[4,5-b]indol-1-yl)-N,N-dimethylacetamide]
TSPO [2]; read-out: Kidney Ki, low-affinity binding (mixed affinity binding)
  Ki: 0.969 nM
TSPO [4]; [12]
  Ki: 3.02 ± 1.01 nM
